Source: the NIST ThermoML archive (doi:10.1016/j.fluid.2008.12.007)

Conditions: Liquid, Ebulliometric method (Recirculating still)

C1CCCCC1 [cyclohexane]
Conditions | vapor or sublimation pressure [kPa]
313.4 K | 24.95
315.76 K | 27.43
318.05 K | 29.95
320.11 K | 32.46
322.06 K | 34.9
323.92 K | 37.43
325.66 K | 39.94
327.32 K | 42.42
328.9 K | 44.91
330.44 K | 47.45
331.94 K | 49.92
333.33 K | 52.43
334.6 K | 54.76
335.99 K | 57.44
337.31 K | 59.98
338.5 K | 62.44
339.65 K | 64.86
340.81 K | 67.47
341.92 K | 69.94
342.99 K | 72.45
344.05 K | 74.96
344.09 K | 75.07
345.11 K | 77.54
346.07 K | 79.92
347.06 K | 82.52
348.01 K | 85.03
348.86 K | 87.27
349.84 K | 89.99
350.73 K | 92.48
351.55 K | 94.84
353.73 K | 101.33

C1=CCCCC1 [cyclohexene]
Conditions | vapor or sublimation pressure [kPa]
315.56 K | 24.94
318.01 K | 27.43
320.26 K | 29.98
322.34 K | 32.47
324.31 K | 34.95
326.23 K | 37.52
327.96 K | 39.98
329.61 K | 42.45
331.23 K | 45.01
332.73 K | 47.48
334.22 K | 50.02
335.62 K | 52.51
336.98 K | 55.02
338.27 K | 57.52
339.52 K | 59.98
340.73 K | 62.46
341.94 K | 65.02
343.07 K | 67.51
344.16 K | 69.97
345.27 K | 72.51
346.3 K | 74.96
347.33 K | 77.48
348.35 K | 80.02
349.31 K | 82.52
350.26 K | 84.99
351.18 K | 87.45
352.09 K | 89.96
352.97 K | 92.46
353.85 K | 95.01
354.71 K | 97.52
355.97 K | 101.33

C=CCCCC [hex-1-ene]
Conditions | vapor or sublimation pressure [kPa]
298.07 K | 24.93
300.32 K | 27.41
302.55 K | 30.08
304.54 K | 32.46
306.31 K | 34.84
308.2 K | 37.48
309.84 K | 39.96
311.51 K | 42.53
312.98 K | 44.96
314.38 K | 47.42
315.79 K | 49.92
317.17 K | 52.53
318.43 K | 54.98
319.62 K | 57.39
320.84 K | 59.94
322.02 K | 62.51
323.16 K | 64.97
324.21 K | 67.45
325.25 K | 69.88
326.29 K | 72.44
327.32 K | 75.04
328.25 K | 77.45
329.21 K | 79.98
330.11 K | 82.42
331.01 K | 84.93
331.86 K | 87.33
332.74 K | 89.92
333.62 K | 92.54
334.38 K | 94.82
335.24 K | 97.45
336.48 K | 101.3

CCCCCC [hexane]
Conditions | vapor or sublimation pressure [kPa]
303.16 K | 25.04
305.43 K | 27.5
307.43 K | 29.95
309.54 K | 32.44
311.47 K | 35.07
313.25 K | 37.51
314.84 K | 39.98
316.52 K | 42.44
317.92 K | 45.02
319.49 K | 47.45
320.76 K | 50.01
322.26 K | 52.52
323.37 K | 55.03
324.59 K | 57.32
325.89 K | 60.07
326.95 K | 62.46
328.09 K | 64.77
329.19 K | 67.22
330.16 K | 69.64
331.45 K | 72.45
332.28 K | 74.82
333.48 K | 77.48
334.39 K | 79.84
335.33 K | 82.31
336.26 K | 84.88
337.14 K | 87.26
338.02 K | 89.85
338.91 K | 92.35
339.73 K | 94.85
340.44 K | 97.02
341.79 K | 101.32
